Assay results as given in patent US20110300529A1, “DETECTION OF IFI16 IN BODY FLUIDS” (NoToPharm srl, priority 2008, published 2011).

Assays:
[1] = test system: Human Keratinocyte monolayers; assay: Western blot analysis of extracellular IFI16 in supernatants of cells undergoing cell death; type: cell-based; settings: 16 h after treatment, TCA-concentrated supernatant, immunoblotting
Description: (§1) Human Keratinocyte monolayers were UVB-irradiated at different doses (200, 400, and 800 J/m^2 respectively), treated with 2 μM Doxorubicin (Doxo) and 80 μM Etoposide (VP-16), or left untreated. At 16 h after treatment, the supernatant was collected and separated for determination of extracellular IFI16, while the remaining cells were lysed for determination of the intracellular cleaved form of PARP (determination of undergoing cell death). Collected supernatants were concentrated with TCA 25% as described in Example 4. […]
Supernatants of human primary keratinocytes cultured in serum-free medium (Epilife, Cascade Biologics, USA) were subjected to precipitation with trichloroacetic acid (TCA). Precipitated protein were analyzed by immunoblotting. […]
(§2) Migrated proteins were transferred to nitrocellulose. The membranes were blocked in TBS/0.05% Tween20/5% BSA and extracellular IFI16 was detected by incubation of the membrane bearing surnatants samples with anti-IFI16 mouse monoclonal antibody (clone 1G7, Santa Cruz, Calif., USA). The intracellular cleaved form of PARP was detected by incubation of the membrane bearing cell extract samples by rabbit anti-PARP cleaved antibody (GTX24830, GeneTex, CA, USA). […]

[2] = test system: Human Keratinocyte monolayers; assay: Intracellular cleaved form of PARP (determination of undergoing cell death) by immunoblotting; type: cell-based; settings: 16 h after treatment, cell lysate
Description: as §1, with “4. An equal amount of total cellular protein per sample and an equal volume of concentrated supernatants were fractionated on SDS-PAGE (7.5% of NEXT GEL Amresco, OH, USA) and transferred to a nitrocellulose membrane (Biorad, CA, USA).” for “4.”
As control of the undergoing cell death induced by the treatment with UVB-irradiation and Doxo or VP-16, also the intracellular PARP cleavage was determined in the exposed keratinocyte. […]
as §2

Row | SMILES | presence of extracellular IFI16 in supernatants ([1]; 2 μM Doxorubicin) | cell death as demonstrated by PARP cleavage ([2]; 2 μM Doxorubicin) | presence of extracellular IFI16 in supernatants ([1]; 80 μM Etoposide) | cell death as demonstrated by PARP cleavage ([2]; 80 μM Etoposide)
1 | COc1cccc2c1C(=O)c1c(O)c3c(c(O)c1C2=O)C[C@@](O)(C(=O)CO)C[C@@H]3O[C@H]1C[C@H](N)[C@H](O)[C@H](C)O1 [Doxorubicin] | not observed | chemically-induced cell death |  | 
2 | COc1cc([C@@H]2c3cc4c(cc3[C@@H](O[C@@H]3O[C@@H]5CO[C@@H](C)O[C@H]5[C@H](O)[C@H]3O)[C@H]3COC(=O)[C@H]23)OCO4)cc(OC)c1O [Etoposide] |  |  | not observed | chemically-induced cell death
